{"source": "patent US5817685A", "about": "“Anticonvulsive imidazoline-2,4-diones and process for making” (Arzneimittelwerk Dresden GmbH, priority 1996, dated 1998)", "key": {"[1]": {"test_system": "pentetrazol-induced seizures", "experiment": "s.c. pentetrazol (PTZ) test in mice", "type": "in vivo", "conditions": "mouse", "procedure": "(§1) They were tested for their anticonvulsive action in vivo after i.p. administration using the international customary mouse animal models described in Pharmac Weekblad, Sc. Ed.\nThe most commonly used chemoconvulsant is pentetrazol which can be used as a primary screen for anticonvulsant activity when dosages that produce hindlimb tonic extension are administered. A dose of pentetrazol that produces solely clonic seizures cannot be used as primary screen for new compounds, as phenytoin and carbamazepine have no effect on the blocking of clonic seizures. This test using pentetrazol to induce seizures, used as a primary screen of anticonvulsant activity is referred to in the results below as PEZ.\n^2 PTZ = S. C. pentetrazol"}, "clonic seizures": {"test_system": "clonic seizures", "conditions": "dose of pentetrazol that produces solely clonic seizures; cited from earlier work"}, "[2]": {"test_system": "seizures (maximum electroshock model, pentetrazol test)", "experiment": "anticonvulsive action in mouse animal models (maximum electroshock and pentetrazol)", "type": "in vivo", "conditions": "comparison with known antiepileptics", "procedure": "They were tested for their anticonvulsive action in vivo after i.p. administration using the international customary mouse animal models described in Pharmac Weekblad, Sc. Ed. The most commonly used chemoconvulsant is pentetrazol which can be used as a primary screen for anticonvulsant activity when dosages that produce hindlimb tonic extension are administered. […] This test using pentetrazol to induce seizures, used as a primary screen of anticonvulsant activity is referred to in the results below as PEZ. Seizures can also be induced electrically for the identification of anticonvulsant activity. […] A […] (60 Hz) electrical current for 0.2 s is delivered by a corneal electrode to mice. The current is four to five times as large as the threshold current needed to produce the tonic seizure. These specific parameters are used to identify compounds that prevent seizure spread, therapeutic agents for generalized tonic clonic seizures. […] However, when the current is lowered to […], compounds which modify both seizure spread and seizure threshold are identified."}, "[3]": {"test_system": "electrically induced seizures (maximum electroshock)", "experiment": "maximum electroshock (MES) test in mice", "type": "in vivo, mouse", "conditions": "ip", "procedure": "as §1\nSeizures can also be induced electrically for the identification of anticonvulsant activity. This test is referred to as the MES test for identifying CNS active drugs. A […] (60 Hz) electrical current for 0.2 s is delivered by a corneal electrode to mice. The current is four to five times as large as the threshold current needed to produce the tonic seizure. These specific parameters are used to identify compounds that prevent seizure spread, therapeutic agents for generalized tonic clonic seizures. Therapeutic agents for absence of seizures are undetected. However, when the current is lowered to […], compounds which modify both seizure spread and seizure threshold are identified.\n^1 MES = maximum electroshock"}, "[4]": {"experiment": "octanol-H2O partition coefficient", "type": "physicochemical", "conditions": "octanol-water, read-out: Log p (octanol-H2O) partition coeff."}, "in vivo": {"experiment": "in vivo", "conditions": "mouse, ip"}, "[5]": {"conditions": "ip, i.p., read-out: Action % of Animals, PTZ"}, "[6]": {"conditions": "mouse, i.p., dose 100 mg/kg, read-out: Action % of Animals, MES"}, "[7]": {"conditions": "mouse, i.p., read-out: Action % of Animals, MES"}}, "note": "Like-named read-outs stand apart in the source and are kept apart here.", "data": [{"compound": "NC(=O)N1c2ccccc2C=Cc2ccccc21", "note": "[Carbamazepine, reference compound]", "values": [{"measurement": "responders at 100 mg/kg", "setting": "[1]; [5]", "result": 0, "unit": "%"}, {"measurement": "effect on the blocking of clonic seizures", "setting": "clonic seizures", "result": "no effect"}, {"measurement": "activity in maximum electroshock model or pentetrazol test", "setting": "[2]", "result": "active either in the maximum electroshock model, or in the pentetrazol test, but not in both"}, {"measurement": "responders at 100 mg/kg", "setting": "[3]; [6]", "result": 100, "unit": "%"}]}, {"compound": "O=C1CN(c2ccccc2Cl)C(=O)N1", "note": "[Example 1, 1-(2-chlorophenyl)imidazoline-2,4-dione]", "values": [{"measurement": "responders at 300 mg/kg", "setting": "[1]; ip, i.p., dose 300 mg/kg, read-out: Action % of Animals, PTZ", "result": 0, "unit": "%"}, {"measurement": "logP", "setting": "[4]", "result": 0.49}, {"measurement": "responders at 300 mg/kg", "setting": "[3]; mouse, i.p., dose 300 mg/kg, read-out: Action % of Animals, MES", "result": 100, "unit": "%"}]}, {"compound": "O=C1CN(c2cccc(Cl)c2Cl)C(=O)N1", "note": "[Example 2, 1-(2,3-dichlorophenyl)imidazoline-2,4-dione]", "values": [{"measurement": "responders at 100 mg/kg", "setting": "[1]; [5]", "result": 100, "unit": "%"}, {"measurement": "logP", "setting": "[4]", "result": 1.16}, {"measurement": "responders at 100 mg/kg", "setting": "[3]; [6]", "result": 100, "unit": "%"}]}, {"compound": "O=C1CN(c2c(Cl)cccc2Cl)C(=O)N1", "note": "[Example 3, 1-(2,6-dichlorophenyl)imidazoline-2,4-dione]", "values": [{"measurement": "responders at 100 mg/kg", "setting": "[1]; [5]", "result": 100, "unit": "%"}, {"measurement": "logP", "setting": "[4]", "result": 0.69}, {"measurement": "responders at 30 mg/kg", "setting": "[3]; [7]", "result": 100, "unit": "%"}]}, {"compound": "O=C1CN(c2ccccc2F)C(=O)N1", "note": "[Example 4, 1-(2-fluorophenyl)imidazoline-2,4-dione]", "values": [{"measurement": "responders at 100 mg/kg", "setting": "[1]; [5]", "result": 100, "unit": "%"}, {"measurement": "responders at 100 mg/kg", "setting": "[3]; [6]", "result": 100, "unit": "%"}]}, {"compound": "Cc1cc(Cl)ccc1N1CC(=O)NC1=O", "note": "[Example 5, 1-(4-chloro-2-methylphenol)imidazoline-2,4-dione]", "values": [{"measurement": "responders at 30 mg/kg", "setting": "[1]; [5]", "result": 100, "unit": "%"}, {"measurement": "logP", "setting": "[4]", "result": 0.86}, {"measurement": "responders at 30 mg/kg", "setting": "[3]; [7]", "result": 100, "unit": "%"}]}, {"compound": "O=C1CN(Cc2ccccc2Cl)C(=O)N1", "note": "[Example 6, 1-(2-chlorobenzyl)imidazoline-2,4-dione]", "values": [{"measurement": "responders at 30 mg/kg", "setting": "[1]; [5]", "result": 100, "unit": "%"}, {"measurement": "logP", "setting": "[4]", "result": 1.12}, {"measurement": "responders at 30 mg/kg", "setting": "[3]; [7]", "result": 100, "unit": "%"}]}, {"compound": "O=C1CN(Cc2c(Cl)cccc2Cl)C(=O)N1", "note": "[Example 7, 1-(2,6-dichlorobenzyl)imidazoline-2,4-dione]", "values": [{"measurement": "responders at 100 mg/kg", "setting": "[1]; [5]", "result": 100, "unit": "%"}, {"measurement": "logP", "setting": "[4]", "result": 1.44}, {"measurement": "responders at 100 mg/kg", "setting": "[3]; [6]", "result": 100, "unit": "%"}]}, {"compound": "O=C1CN(Cc2c(F)cccc2F)C(=O)N1", "note": "[Example 8, 1-(2,6-difluorobenzyl)imidazoline-2,4-dione]", "values": [{"measurement": "responders at 100 mg/kg", "setting": "[1]; [5]", "result": 100, "unit": "%"}, {"measurement": "ED50", "setting": "[1]; sc", "result": 50, "unit": "mg/kg"}, {"measurement": "logP", "setting": "[4]", "result": 0.63}, {"measurement": "ED50", "setting": "[3]; mouse", "result": 36, "unit": "mg/kg"}, {"measurement": "responders at 100 mg/kg", "setting": "[3]; [6]", "result": 100, "unit": "%"}, {"measurement": "TD50", "setting": "in vivo", "result": 123, "unit": "mg/kg"}]}, {"compound": "O=C1CN(Cc2ccccc2C(F)(F)F)C(=O)N1", "note": "[Example 9]", "values": [{"measurement": "responders at 30 mg/kg", "setting": "[1]; [5]", "result": 100, "unit": "%"}, {"measurement": "responders at 30 mg/kg", "setting": "[3]; [7]", "result": 100, "unit": "%"}]}, {"compound": "CCCC(CCC)C(=O)O", "note": "[Valproate, reference compound]", "values": [{"measurement": "responders at 100 mg/kg", "setting": "[1]; [5]", "result": 0, "unit": "%"}, {"measurement": "responders at 100 mg/kg", "setting": "[3]; Mus musculus, read-out: Action % of Animals, MES", "result": 0, "unit": "%"}]}, {"compound": "CCCC(CCC)C(=O)O", "note": "[calcium valproate]", "values": [{"measurement": "activity in maximum electroshock model or pentetrazol test", "setting": "[2]", "result": "active either in the maximum electroshock model, or in the pentetrazol test, but not in both"}]}, {"compound": "O=C1NC(=O)C(c2ccccc2)(c2ccccc2)N1", "note": "[phenytoin]", "values": [{"measurement": "effect on the blocking of clonic seizures", "setting": "clonic seizures", "result": "no effect"}]}]}
